Source: PubChem BioAssay (NCI)
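Where inhibition never reached the appropriate level, the endpoint shown equals the highest concentration tested. Otherwise, values were interpolated linearly from a five-concentration, 48-hour dose response in 96-well plates. The concentration for full growth arrest is given as TGI.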

Key:
Assay in all cases: growth of human tumour cells (NCI), 48 h
M14 melanoma = system: M14 melanoma
OVCAR-8 ovarian = system: OVCAR-8 ovarian
CAKI-1 renal = system: CAKI-1 renal
786-0 renal = system: 786-0 renal
MALME-3M melanoma = system: MALME-3M melanoma
EKVX NSCLC = system: EKVX NSCLC
IGROV1 ovarian = system: IGROV1 ovarian
LOX IMVI melanoma = system: LOX IMVI melanoma
M19-MEL melanoma = system: M19-MEL melanoma
NCI-H23 lung = system: NCI-H23 lung
HCC-2998 colon = system: HCC-2998 colon
A549 NSCLC = system: A549 NSCLC
SK-OV-3 ovarian = system: SK-OV-3 ovarian
CCRF-CEM leukemia = system: CCRF-CEM leukemia
SN12C renal = system: SN12C renal
UO-31 renal = system: UO-31 renal
OVCAR-5 ovarian = system: OVCAR-5 ovarian
SK-MEL-28 melanoma = system: SK-MEL-28 melanoma
SNB-75 CNS = system: SNB-75 CNS
UACC-257 melanoma = system: UACC-257 melanoma
COLO 205 colon = system: COLO 205 colon
KM20L2 colon = system: KM20L2 colon
U251 CNS = system: U251 CNS
SW-620 colon = system: SW-620 colon
NCI-H522 lung = system: NCI-H522 lung
ACHN renal = system: ACHN renal
SK-MEL-5 melanoma = system: SK-MEL-5 melanoma
SNB-19 CNS = system: SNB-19 CNS
RXF 393 renal = system: RXF 393 renal
HCT-116 colon = system: HCT-116 colon
HT29 colon = system: HT29 colon
MOLT-4 leukemia = system: MOLT-4 leukemia
SK-MEL-2 melanoma = system: SK-MEL-2 melanoma
KM12 colon = system: KM12 colon
SR leukemia = system: SR leukemia
SF-539 CNS = system: SF-539 CNS
HL-60(TB) leukemia = system: HL-60(TB) leukemia
A498 renal = system: A498 renal
K-562 leukemia = system: K-562 leukemia
SF-295 CNS = system: SF-295 CNS
SF-268 CNS = system: SF-268 CNS
NCI-H226 lung = system: NCI-H226 lung
HCT-15 colon = system: HCT-15 colon
OVCAR-4 ovarian = system: OVCAR-4 ovarian
RPMI-8226 leukemia = system: RPMI-8226 leukemia
OVCAR-3 ovarian = system: OVCAR-3 ovarian
HOP-62 NSCLC = system: HOP-62 NSCLC
NCI-H460 lung = system: NCI-H460 lung
UACC-62 melanoma = system: UACC-62 melanoma
TK-10 renal = system: TK-10 renal
DMS 114 small cell lung = system: DMS 114 small cell lung
SNB-78 CNS = system: SNB-78 CNS
LXFL 529 NSCLC = system: LXFL 529 NSCLC
DMS 273 small cell lung = system: DMS 273 small cell lung
DLD-1 colon = system: DLD-1 colon

CN(C)C(=S)/N=c1\ss/c(=N\C(=S)N(C)C)n1C1CCCCC1
TGI (M14 melanoma): > 100 µM | TGI (OVCAR-8 ovarian): > 100 µM | TGI (CAKI-1 renal): > 100 µM | TGI (786-0 renal): > 100 µM | TGI (MALME-3M melanoma): > 100 µM | TGI (EKVX NSCLC): > 100 µM | TGI (IGROV1 ovarian): > 100 µM | TGI (LOX IMVI melanoma): > 100 µM | TGI (M19-MEL melanoma): > 100 µM | TGI (NCI-H23 lung): > 100 µM | TGI (HCC-2998 colon): > 100 µM | TGI (A549 NSCLC): > 100 µM | TGI (SK-OV-3 ovarian): > 100 µM | TGI (CCRF-CEM leukemia): > 100 µM | TGI (SN12C renal): > 100 µM | TGI (UO-31 renal): > 100 µM | TGI (OVCAR-5 ovarian): > 100 µM | TGI (SK-MEL-28 melanoma): > 100 µM | TGI (SNB-75 CNS): > 100 µM | TGI (UACC-257 melanoma): > 100 µM | TGI (COLO 205 colon): > 100 µM | TGI (KM20L2 colon): > 100 µM | TGI (U251 CNS): > 100 µM | TGI (SW-620 colon): > 100 µM | TGI (NCI-H522 lung): > 100 µM | TGI (ACHN renal): > 100 µM | TGI (SK-MEL-5 melanoma): > 100 µM | TGI (SNB-19 CNS): > 100 µM | TGI (RXF 393 renal): > 100 µM | TGI (HCT-116 colon): > 100 µM | TGI (HT29 colon): 43.8 µM | TGI (MOLT-4 leukemia): > 100 µM | TGI (SK-MEL-2 melanoma): > 100 µM | TGI (KM12 colon): > 100 µM | TGI (SR leukemia): > 100 µM | TGI (SF-539 CNS): > 100 µM | TGI (HL-60(TB) leukemia): > 100 µM | TGI (A498 renal): > 100 µM | TGI (K-562 leukemia): > 100 µM | TGI (SF-295 CNS): > 100 µM | TGI (SF-268 CNS): > 100 µM | TGI (NCI-H226 lung): > 100 µM | TGI (HCT-15 colon): > 100 µM | TGI (OVCAR-4 ovarian): 63 µM | TGI (RPMI-8226 leukemia): > 100 µM | TGI (OVCAR-3 ovarian): > 100 µM | TGI (HOP-62 NSCLC): > 100 µM | TGI (NCI-H460 lung): 15.5 µM | TGI (UACC-62 melanoma): > 100 µM | TGI (TK-10 renal): > 100 µM | TGI (DMS 114 small cell lung): 24.2 µM | TGI (SNB-78 CNS): > 100 µM

CCCC12Cc3c(OC)ccc(OC)c3CC(Cc3c(OC)ccc(OC)c31)C2=O (stereo unspecified)
TGI (M14 melanoma): > 100 µM | TGI (OVCAR-8 ovarian): > 100 µM | TGI (CAKI-1 renal): > 100 µM | TGI (786-0 renal): > 100 µM | TGI (MALME-3M melanoma): > 100 µM | TGI (EKVX NSCLC): > 100 µM | TGI (M19-MEL melanoma): > 100 µM | TGI (NCI-H23 lung): > 100 µM | TGI (HCC-2998 colon): > 100 µM | TGI (A549 NSCLC): > 100 µM | TGI (SK-OV-3 ovarian): > 100 µM | TGI (CCRF-CEM leukemia): > 100 µM | TGI (SN12C renal): > 100 µM | TGI (UO-31 renal): > 100 µM | TGI (OVCAR-5 ovarian): > 100 µM | TGI (SK-MEL-28 melanoma): > 100 µM | TGI (SNB-75 CNS): > 100 µM | TGI (UACC-257 melanoma): > 100 µM | TGI (U251 CNS): > 100 µM | TGI (SW-620 colon): > 100 µM | TGI (LXFL 529 NSCLC): > 100 µM | TGI (DMS 273 small cell lung): > 100 µM | TGI (NCI-H522 lung): > 100 µM | TGI (ACHN renal): > 100 µM | TGI (SK-MEL-5 melanoma): > 100 µM | TGI (SNB-19 CNS): > 100 µM | TGI (RXF 393 renal): > 100 µM | TGI (HCT-116 colon): > 100 µM | TGI (HT29 colon): > 100 µM | TGI (MOLT-4 leukemia): > 100 µM | TGI (SK-MEL-2 melanoma): > 100 µM | TGI (KM12 colon): > 100 µM | TGI (SR leukemia): > 100 µM | TGI (SF-539 CNS): > 100 µM | TGI (HL-60(TB) leukemia): > 100 µM | TGI (A498 renal): > 100 µM | TGI (K-562 leukemia): > 100 µM | TGI (SF-295 CNS): > 100 µM | TGI (SF-268 CNS): > 100 µM | TGI (NCI-H226 lung): > 100 µM | TGI (HCT-15 colon): > 100 µM | TGI (OVCAR-4 ovarian): > 100 µM | TGI (OVCAR-3 ovarian): > 100 µM | TGI (HOP-62 NSCLC): > 100 µM | TGI (NCI-H460 lung): > 100 µM | TGI (DLD-1 colon): > 100 µM | TGI (TK-10 renal): > 100 µM | TGI (DMS 114 small cell lung): > 100 µM | TGI (SNB-78 CNS): > 100 µM
